In patent US5279939A, “Protein protease inhibitors from streptomyces” (SmithKline Beecham Corporation, priority 1992, dated 1994):

Tested on: trypsin
Assay: chromogenic trypsin inhibition assay using KABI S2288 substrate
Type: biochemical
Settings: 25 ng trypsin, 410 nm
Method: Trypsin inhibitory activity was determined in a chromogenic assay using KABI S2288 as substrate (HO ILE PRO ARG p-nitroanilide.) Scisson of the ARG-p-nitroanilide bond releases p-nitroaniline which absorbs at 410 nm; thus, the extent of cleavage is measured by the increase in absorbance at 410 nm. This assay was used in qualitative manner to determine the inhibitory activity of LTI and LEP-10. Briefly, serial two fold dilutions of either conditioned medium (CM) or ammonium sulfate concentrates (AS) of conditioned medium were mixed with 25 ng of trypsin and the substrate was added. After 30 min at room temperature, the assay was stopped by addition of acetic acid. The assay was carried out in microtiter plates, which were then read in an ELISA reader. Similar samples of PSN were included as controls. […] The data shown are the absorbances measured following cleavage of the chromogenic substrate by trypsin.

plasminostreptin [PSN] was tested, and the “absorbance following cleavage of the chromogenic substrate by trypsin” value (shortened to “absorbance following cleavage”) (ammonium sulfate concentrate (AS), reciprocal dilution 1, 30 min, No Inh. control 0.763 (LTI) / 0.751 (PSN)) was 0.018, the “absorbance following cleavage” value (ammonium sulfate concentrate (AS), reciprocal dilution 2, 30 min) was 0.021 and the “absorbance following cleavage” value (ammonium sulfate concentrate (AS), reciprocal dilution 4, 30 min) was 0.023. The “absorbance following cleavage” value (ammonium sulfate concentrate (AS), reciprocal dilution 8, 30 min) was 0.024, the “absorbance following cleavage” value (ammonium sulfate concentrate (AS), reciprocal dilution 16, 30 min) was 0.036 and the “absorbance following cleavage” value (ammonium sulfate concentrate (AS), reciprocal dilution 32, 30 min) was 0.076. For the same substance, the “absorbance following cleavage” value (conditioned medium (CM), reciprocal dilution 1, 30 min room temperature, No Inh. control 0.898 (LTI) / 0.772 (PSN)) was 0.010, the “absorbance following cleavage” value (conditioned medium (CM), reciprocal dilution 2, 30 min) was 0.046 and the “absorbance following cleavage” value (conditioned medium (CM), reciprocal dilution 4, 30 min) was 0.046. The “absorbance following cleavage” value (conditioned medium (CM), reciprocal dilution 8, 30 min) was 0.053, the “absorbance following cleavage” value (conditioned medium (CM), reciprocal dilution 16, 30 min) was 0.058 and the “absorbance following cleavage” value (conditioned medium (CM), reciprocal dilution 32, 30 min) was 0.273.
